Assay results taken from patent publication US11400059B2, “Treatment of pain and/or pain related symptoms associated with dysmenorrhea” (ALYRA BIOTECH PTY LTD, priority 2017, dated 2022).

Key:
Human TLR3 = molecular target: T1, Human TLR3 (Homo sapiens, UniProt O15455); test: Human TLR antagonist screening, NF-κB SEAP reporter in HEK293 cells; type: cell-based; conditions: antagonist mode, test article 1 μM, +Poly(I:C) 50 ng/ml, No Sample 14, Control− 1
T1 construct: expressed in transfected cells; host or cells: HEK293
T1 sequence (O15455 24-904): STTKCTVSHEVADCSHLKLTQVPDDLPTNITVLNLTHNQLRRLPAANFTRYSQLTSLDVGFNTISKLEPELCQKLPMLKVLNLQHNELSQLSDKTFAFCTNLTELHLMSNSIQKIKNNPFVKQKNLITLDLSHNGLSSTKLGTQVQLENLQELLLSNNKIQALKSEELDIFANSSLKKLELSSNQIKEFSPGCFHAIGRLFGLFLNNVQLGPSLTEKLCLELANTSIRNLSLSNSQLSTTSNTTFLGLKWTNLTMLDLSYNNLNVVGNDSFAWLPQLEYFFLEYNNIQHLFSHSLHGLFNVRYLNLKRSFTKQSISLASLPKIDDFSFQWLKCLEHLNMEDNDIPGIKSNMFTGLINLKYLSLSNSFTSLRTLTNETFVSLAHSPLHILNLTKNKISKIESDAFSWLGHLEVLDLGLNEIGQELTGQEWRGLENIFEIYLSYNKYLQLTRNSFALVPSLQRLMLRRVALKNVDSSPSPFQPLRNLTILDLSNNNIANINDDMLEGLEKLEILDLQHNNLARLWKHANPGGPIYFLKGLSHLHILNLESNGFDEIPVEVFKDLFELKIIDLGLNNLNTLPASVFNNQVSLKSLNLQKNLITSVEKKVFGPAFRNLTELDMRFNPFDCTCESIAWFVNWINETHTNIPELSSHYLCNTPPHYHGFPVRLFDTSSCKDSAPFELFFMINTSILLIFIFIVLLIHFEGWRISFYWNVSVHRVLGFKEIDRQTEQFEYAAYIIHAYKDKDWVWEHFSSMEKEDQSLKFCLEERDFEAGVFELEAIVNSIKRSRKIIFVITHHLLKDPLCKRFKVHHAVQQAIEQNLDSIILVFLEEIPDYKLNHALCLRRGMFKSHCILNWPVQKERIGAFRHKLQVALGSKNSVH
Procedure: (§1) Toll-Like Receptor (TLR), NOD-Like Receptor (NLR) and C-Type Lectin Receptor (CLR) stimulation were tested by assessing NF-κB activation in HEK293 cells expressing a given TLR, NLR or CLR. The activity of the test articles was tested at one concentration and compared to control ligands. These steps were performed in triplicate. hTLR3: Poly(I:C) HMW at 1 μg/mL Antagonist: 50 ng/mL. In a 96-well plate (200 μL total volume) containing the appropriate cells (50,000-75,000 cells/well), 20 μL of the test article or the positive control ligand was added to the wells. For the antagonist assay, the test article was incubated with the cells, at 37° C. with 5% CO2, for 30 minutes prior to the addition of the positive control ligand to the wells. The media added to the wells was designed for the detection of NF-κB induced SEAP expression. After a 16-24 hr incubation the optical density (OD) was read at 650 nm on a Molecular Devices SpectraMax 340PC absorbance detector. Fold induction (ratio of average induced value to average non-induced value) was determined for each TLR, NOD1, NOD2, Dectin-1a, Dectin-1b.

Human TLR4 = molecular target: T2, Human TLR4 (Homo sapiens, UniProt O00206+Q9Y6Y9); test: as above; type: cell-based; conditions: antagonist mode, test article 1 μM, +LPS-EK 10 ng/mL, No Sample 14, Control− 1
T2 construct: expressed in transfected cells; host or cells: HEK293
T2 sequence (O00206 24-839): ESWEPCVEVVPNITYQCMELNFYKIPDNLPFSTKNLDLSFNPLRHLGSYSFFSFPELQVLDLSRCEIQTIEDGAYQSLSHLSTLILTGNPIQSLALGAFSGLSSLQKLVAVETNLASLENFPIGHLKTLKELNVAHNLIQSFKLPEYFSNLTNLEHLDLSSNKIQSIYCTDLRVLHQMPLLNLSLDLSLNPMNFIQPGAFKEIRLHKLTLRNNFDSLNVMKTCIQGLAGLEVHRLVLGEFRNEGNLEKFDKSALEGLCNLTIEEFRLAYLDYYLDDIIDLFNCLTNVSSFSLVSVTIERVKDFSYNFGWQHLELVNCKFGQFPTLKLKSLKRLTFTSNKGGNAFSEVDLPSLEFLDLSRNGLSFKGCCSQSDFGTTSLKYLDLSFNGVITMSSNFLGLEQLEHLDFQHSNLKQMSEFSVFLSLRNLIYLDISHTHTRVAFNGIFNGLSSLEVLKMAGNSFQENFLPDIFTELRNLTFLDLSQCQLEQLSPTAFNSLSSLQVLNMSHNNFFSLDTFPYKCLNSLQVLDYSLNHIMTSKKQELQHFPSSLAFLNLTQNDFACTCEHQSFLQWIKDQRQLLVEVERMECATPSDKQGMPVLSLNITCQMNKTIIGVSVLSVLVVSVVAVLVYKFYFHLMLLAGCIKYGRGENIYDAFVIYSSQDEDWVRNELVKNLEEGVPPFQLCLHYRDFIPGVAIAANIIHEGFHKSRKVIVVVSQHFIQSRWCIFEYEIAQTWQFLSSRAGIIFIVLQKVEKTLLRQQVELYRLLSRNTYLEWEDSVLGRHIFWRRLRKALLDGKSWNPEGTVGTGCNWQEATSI
T2 sequence (Q9Y6Y9 19-160): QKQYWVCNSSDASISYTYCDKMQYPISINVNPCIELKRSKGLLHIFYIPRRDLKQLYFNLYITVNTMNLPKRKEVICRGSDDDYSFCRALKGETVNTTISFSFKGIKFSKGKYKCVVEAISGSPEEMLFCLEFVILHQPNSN
Procedure: as §1, with “hTLR4: […]” for “hTLR3: Poly(I:C) HMW at 1 μg/mL Antagonist: 50 ng/mL.”

Row | SMILES | Fold Induction (Human TLR3) | Fold Induction (Human TLR3; listed as Nor) | Fold Induction (Human TLR4) | Fold Induction (Human TLR3; listed as Ami) | Fold Induction (Human TLR4; listed as Ami)
1 | CNCCC=C1c2ccccc2CCc2ccccc21 [Nortriptyline] | slight inhibitory effect | 12 | 14 |  | 
2 | CN(C)CCC=C1c2ccccc2CCc2ccccc21 [Amitriptyline] | slight inhibitory effect |  | slight inhibitory effect | 12 | 12
